The assay has as its target T1, 5-HT1A receptor (5-HT1AR) (Homo sapiens, UniProt P08908).
T1 sequence (P08908 1-422): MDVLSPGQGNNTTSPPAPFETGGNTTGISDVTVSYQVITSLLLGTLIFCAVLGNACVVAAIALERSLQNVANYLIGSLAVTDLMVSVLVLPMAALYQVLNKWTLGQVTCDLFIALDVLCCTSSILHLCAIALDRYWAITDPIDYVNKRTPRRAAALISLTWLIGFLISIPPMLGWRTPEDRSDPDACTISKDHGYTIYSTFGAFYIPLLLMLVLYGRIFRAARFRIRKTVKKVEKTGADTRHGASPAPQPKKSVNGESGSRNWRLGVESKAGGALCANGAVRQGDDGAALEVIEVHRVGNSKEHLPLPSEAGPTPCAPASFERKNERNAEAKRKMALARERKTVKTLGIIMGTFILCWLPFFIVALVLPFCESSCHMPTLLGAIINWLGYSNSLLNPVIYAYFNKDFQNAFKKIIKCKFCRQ
Put plainly: radioligand displacement of [3H]-8-OH-DPAT. In kind it is binding. For orientation: Loss of bound radioactivity is the signal in a displacement assay; it reports binding, not function.

This passage reports Ki results from publication PMC9127068 (ChemMedChem, 2022).

As a reminder, the Ki is the dissociation constant of the complex between target and ligand, obtained from inhibition or displacement. A low value points to tighter binding. Molecule `CCCN(CCCCCCNS(=O)(=O)c1cccc2c(N(C)C)cccc12)C1CCc2cccc(O)c2C1` (centres unmarked) [5a] displayed a Ki of 1.8 nM.

As for `CCCN(CCCCCCNc1ccc([N+](=O)[O-])c2nonc12)C1CCc2cccc(O)c2C1` (centres unmarked) [5b], the inhibition constant (Ki) worked out at 10 nM.
